A value given as a limit tells only on which side of the number the result lay.

In one experiment the test system is ERK5. Also on record: method as in Deng et al., 2013. To be noted: Data retrieved from the literature; ref Deng et al., 2013; cited from earlier work.
Another experiment addresses T1, recombinant human ERK5 (Homo sapiens, UniProt Q13164).
T1 construct: Catalytically active kinase domain of recombinant human ERK5 enzyme was purchased from Carna Biosciences; purchased Carna Biosciences
In words: TR-FRET (LANCE Ultra) biochemical assay of ERK5 kinase activity. The following applies: TR-FRET enzymatic assay, phosphorylated ERK5; read-out: ERK5 IC50. As for the experimental part: Catalytically active kinase domain of recombinant human ERK5 enzyme was purchased from Carna Biosciences. […] The inhibitory potency of compounds against ERK5 was evaluated using the LANCE Ultra technology from PerkinElmer according to the manufacturer’s instructions. Briefly, 3 µl of different concentrations of ATP and 100 nM ULight-eIF4E-binding protein 1 (Thr37/46) peptide (Perkin-Elmer catalogue No. TRF0128) were incubated in the presence of serially diluted compound or DMSO control at room temperature in 384-well Greiner white polystyrene assay plates. The reaction was initiated by the addition of 3 µl of 10 nM kinase. The assay buffer consisted of 1 mM DTT, 10 mM MgCl2, 1 mM EGTA, 0.01%(v/v) Tween 20 in 50 mM HEPES pH 7.5. After 60 min incubation, the reaction was stopped by the addition of 6 µl stop/detection reagent mixture consisting of 20 mM EDTA and 4 nM Eu-anti-phospho-eIF4E-binding protein 1 (Thr37/46) antibody (PerkinElmer catalogue No. TRF0216) diluted in detection buffer. The plates were incubated for 1 h before the fluorescence was measured at 615 and 665 nm with an excitation wavelength of 320 nm using an EnVision Multilabel Reader from Perkin-Elmer in time-resolved fluorescence resonance energy transfer (TR-FRET) mode. The calculated signal ratio at 665/615 nm is proportional to the kinase activity. The concentration of compound producing 50% inhibition of the kinase activity (IC50) was calculated by using GraphPad Prism to fit the data to a symmetrical sigmoidal curve.

T1 sequence (Q13164 55-347 limits assumed): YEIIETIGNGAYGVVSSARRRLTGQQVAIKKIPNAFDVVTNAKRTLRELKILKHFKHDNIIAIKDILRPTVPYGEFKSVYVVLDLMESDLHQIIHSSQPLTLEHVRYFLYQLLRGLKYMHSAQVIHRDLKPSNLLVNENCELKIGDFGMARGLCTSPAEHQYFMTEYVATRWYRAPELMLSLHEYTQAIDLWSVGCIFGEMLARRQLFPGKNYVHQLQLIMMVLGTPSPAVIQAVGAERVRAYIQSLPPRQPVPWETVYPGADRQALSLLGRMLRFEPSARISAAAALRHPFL

A word on the IC50: it is the point on the concentration scale where inhibition reaches its midpoint. On to `COc1cc(C(=O)N2CCC(N3CCN(C)CC3)CC2)ccc1Nc1ncc2c(n1)N(C1CCCC1)c1ccccc1C(=O)N2C` [Compound 1], for which the IC50 with ERK5 is 0.082 µM. As to `CC(C)NC(=O)n1nc(N)nc1Nc1ccc(Cl)cc1` [Compound 4], the IC50 on recombinant human ERK5 is above 10 µM.

In the case of `CC(NC(=O)n1nc(N)nc1Nc1ccc(Cl)cc1)c1ccccc1` (stereo not drawn) [Compound 6], the IC50 on recombinant human ERK5 was above 10 µM.

Source of the values: paper PMC4854315, “Discovery of a novel allosteric inhibitor-binding site in ERK5: comparison with the canonical kinase hinge ATP-binding site” (Acta Crystallographica. Section D, Structural Biology, 2016).
